Test system: Saos-2 cells
Assay: GCV tolerance (toxicity of GCV alone to cells)
Format: cell-based, human
Conditions: 1.25×10^−5-6.2×10^−5M
Experimental: The GCV tolerance profile of Saos-2 cells was determined in parallel by treating the cells with various concentrations of GCV (ranging from 0.1 μmole to 2 mM).
The toxicity of the GCV to cells were analysed by subjecting the cells to various concentration of GCV (ranging from 0.1 μmole to 2 mM GCV at 37° C.) for 3 days. The remaining steps of the treatment were carried out as the tk-GCV assay.

Nc1nc(O)c2ncn(COC(CO)CO)c2n1 [Gancyclovir, Ganciclovir]
effect on cell viability of gancyclovir by itself: no effect
